Numbering of substitutions follows the chain as printed.
Columns and labels:
[1] = test system: T1, Lysosomal alpha-mannosidase (Homo sapiens), O00754 [C55F]; assay: Chaperone activity at human Lysosomal alpha-mannosidase C55F mutant transfected in human […] knockout HAP1 cells assessed as enzyme activity enhancement at 2 uM incubated for 96 hrs relative to control
T1 sequence (whole entry): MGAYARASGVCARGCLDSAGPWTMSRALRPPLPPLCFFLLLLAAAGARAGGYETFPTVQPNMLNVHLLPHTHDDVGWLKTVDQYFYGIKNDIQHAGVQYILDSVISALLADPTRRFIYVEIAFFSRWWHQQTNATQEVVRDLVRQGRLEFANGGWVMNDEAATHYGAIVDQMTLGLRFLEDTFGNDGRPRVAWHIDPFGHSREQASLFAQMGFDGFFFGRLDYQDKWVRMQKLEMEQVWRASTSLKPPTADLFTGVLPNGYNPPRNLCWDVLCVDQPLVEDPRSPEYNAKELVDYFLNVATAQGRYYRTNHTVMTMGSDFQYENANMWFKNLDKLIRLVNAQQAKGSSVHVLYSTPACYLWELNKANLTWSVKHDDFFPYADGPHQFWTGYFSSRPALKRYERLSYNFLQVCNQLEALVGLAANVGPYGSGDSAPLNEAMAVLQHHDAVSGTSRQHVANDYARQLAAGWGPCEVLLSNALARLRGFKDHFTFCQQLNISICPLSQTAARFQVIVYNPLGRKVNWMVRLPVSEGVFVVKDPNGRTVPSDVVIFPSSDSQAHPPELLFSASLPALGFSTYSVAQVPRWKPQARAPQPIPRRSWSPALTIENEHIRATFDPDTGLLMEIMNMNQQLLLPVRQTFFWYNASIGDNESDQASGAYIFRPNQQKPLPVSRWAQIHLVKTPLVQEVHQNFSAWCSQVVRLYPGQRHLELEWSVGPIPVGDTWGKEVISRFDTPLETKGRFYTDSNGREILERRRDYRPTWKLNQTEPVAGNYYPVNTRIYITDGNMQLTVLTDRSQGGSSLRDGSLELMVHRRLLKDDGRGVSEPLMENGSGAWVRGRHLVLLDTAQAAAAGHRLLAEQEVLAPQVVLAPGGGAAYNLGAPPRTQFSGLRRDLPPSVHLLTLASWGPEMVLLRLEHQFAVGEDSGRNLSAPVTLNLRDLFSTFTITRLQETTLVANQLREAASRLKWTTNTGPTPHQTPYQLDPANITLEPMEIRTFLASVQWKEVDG

[2] = test system: T2, Lysosomal alpha-mannosidase (Homo sapiens), O00754 [L565P]; assay: Chaperone activity at human Lysosomal alpha-mannosidase L565P mutant transfected in human […] knockout HAP1 cells assessed as enzyme activity enhancement at 2 uM incubated for 96 hrs relative to control
T2 sequence (whole entry): T1 sequence (whole entry) with F55C, L565P

SMILES	Activity [1] [%]	Activity [2] [%]
CC(C)(C)OC(=O)NCCCCCCCCCN[C@@H]1[C@@H](O)[C@@H](O)[C@H](O)[C@H]2COC(=O)N21	51	14
COC[C@H]1O[C@@H]2O[C@H]3[C@H](OC)[C@@H](OC)[C@@H](O[C@H]4[C@H](OC)[C@@H](OC)[C@@H](O[C@H]5[C@H](OC)[C@@H](OC)[C@@H](O[C@H]6[C@H](OC)[C@@H](OC)[C@@H](O[C@H]7[C@H](OC)[C@@H](OC)[C@@H](O[C@H]8[C@H](OC)[C@@H](OC)[C@@H](O[C@H]1[C@H](OC)[C@H]2OC)O[C@@H]8COC)O[C@@H]7COC)O[C@@H]6COC)O[C@@H]5COCc1cn(CCCCCCN[C@@H]2[C@@H](O)[C@@H](O)[C@H](O)[C@H]5COC(=O)N52)nn1)O[C@@H]4COC)O[C@@H]3COC	12	8

Source: ChEMBL document CHEMBL4396870, “Pharmacological Chaperones for the Treatment of α-Mannosidosis” (J Med Chem, 2019)
